Read-outs that look alike come from different tables or passages of the source.
Assays:
Type in all cases: in vivo
Diabrotica Balteata = assay: Diabrotica balteata (corn root worm) maize sprout test; conditions: 96 h, read-out: effect in at least one of the two categories (mortality or growth inhibition)
In short: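 Maize sprouts on agar were sprayed with aqueous test solutions made from 10′000 ppm DMSO stocks, dried, then infested with 6 to 10 L2 larvae per well. Mortality and growth inhibition versus untreated samples were assessed 4 days after infestation; application rate 200 ppm.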

Thrips tabaci = Thrips tabaci (onion thrips) sunflower leaf disc test; conditions: foliar, 144 h
Protocol: Thrips tabaci (Onion Thrips):
Sunflower leaf discs were placed on agar in 24-well microtiter plates and sprayed with aqueous test solutions prepared from 10′000 ppm DMSO stock solutions. After drying the leaf discs were infested with a thrips population of mixed ages. The samples were assessed for mortality 6 days after infestation.

Myzus persicae = Myzus persicae (green peach aphid) sunflower leaf disc test; conditions: foliar, 144 h
Protocol: Myzus persicae (Green Peach Aphid):
Sunflower leaf discs were placed on agar in a 24-well microtiter plate and sprayed with test solutions at an application rate of 200 ppm. After drying, the leaf discs were infested with an aphid population of mixed ages. After an incubation period of 6 days after treatment, samples were checked for mortality. The following compounds gave at least 80% mortality of Myzus persicae: […]

Plutella xylostella = Plutella xylostella (diamond back moth) artificial diet test; conditions: 120 h, read-out: effect in at least one of the two categories (mortality or growth inhibition)
In short: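 Artificial diet treated with aqueous compound solutions made from DMSO stocks, dried, then infested with L2 larvae (10 to 15 per well). Mortality and growth inhibition scored versus untreated controls 5 days after infestation. Application rate 200 ppm.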

Tetranychus urticae = Tetranychus urticae (two-spotted spider mite) bean leaf disc test; conditions: foliar, 192 h
Protocol: Tetranychus urticae (Two-Spotted Spider Mite):
Bean leaf discs on agar in 24-well microtiter plates were sprayed with aqueous test solutions prepared from 10′000 ppm DMSO stock solutions. After drying the leaf discs were infested with a mite population of mixed ages. The samples were assessed for mortality on mixed population (mobile stages) 8 days after infestation.

Spodoptera littoralis = Spodoptera littoralis (Egyptian cotton leaf worm) cotton leaf disc test; conditions: foliar, 72 h, read-out: control (at least one of mortality, anti-feedant effect, and growth inhibition)
In short: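 Cotton leaf discs on agar were sprayed with aqueous dilutions of 10′000 ppm DMSO stocks, dried and infested with five L1 larvae. Mortality, anti-feedant effect and growth inhibition were scored against untreated samples 3 days after infestation. Control = any of these higher than untreated.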

[1] = application rate 200 ppm, maize sprouts, L2 larvae, 4 days after infestation
[2] = application rate 200 ppm, sunflower leaf discs, population of mixed ages, 6 days after infestation, read-out: mortality
[3] = application rate 200 ppm, sunflower leaf discs, population of mixed ages, 6 days after treatment, read-out: mortality
[4] = application rate 200 ppm, artificial diet, L2 larvae, 5 days after infestation
[5] = application rate 200 ppm, bean leaf discs, mixed population (mobile stages), 8 days after infestation, read-out: mortality
[6] = application rate 200 ppm, cotton leaf discs, L1 larvae, 3 days after infestation

CCOC1=NOC(NC(=O)c2ccc(C3=NO[C@@](c4cc(Cl)c(F)c(Cl)c4)(C(F)(F)F)C3)cc2Cl)C1 (stereo partly drawn) [Compound A064]
≥ 80%: percent effect (mortality or growth inhibition) at 200 ppm (Diabrotica Balteata) | mortality at 200 ppm (Thrips tabaci) | mortality at 200 ppm (Myzus persicae) | percent effect (mortality or growth inhibition) at 200 ppm (Plutella xylostella) | mortality at 200 ppm (Tetranychus urticae) | percent control (mortality, anti-feedant effect or growth inhibition) at 200 ppm (Spodoptera littoralis)

CC(=O)OCC1=NOC(NC(=O)c2ccc(C3=NO[C@@](c4cc(Cl)c(F)c(Cl)c4)(C(F)(F)F)C3)cc2C)C1 (stereo partly drawn) [Compound A069]
≥ 80%: percent effect (mortality or growth inhibition) at 200 ppm (Diabrotica Balteata) | mortality at 200 ppm (Thrips tabaci) | mortality at 200 ppm (Myzus persicae) | percent effect (mortality or growth inhibition) at 200 ppm (Plutella xylostella) | mortality at 200 ppm (Tetranychus urticae) | percent control (mortality, anti-feedant effect or growth inhibition) at 200 ppm (Spodoptera littoralis)

CCC1=NOC(N(C=O)C(=O)c2ccc(C3=NO[C@@](c4cc(Cl)cc(Cl)c4)(C(F)(F)F)C3)cc2C)C1 (stereo partly drawn) [Compound A139]
≥ 80%: percent effect (mortality or growth inhibition) at 200 ppm (Diabrotica Balteata) | mortality at 200 ppm (Thrips tabaci) | mortality at 200 ppm (Myzus persicae) | percent effect (mortality or growth inhibition) at 200 ppm (Plutella xylostella) | mortality at 200 ppm (Tetranychus urticae) | percent control (mortality, anti-feedant effect or growth inhibition) at 200 ppm (Spodoptera littoralis)

Cc1cc(C2=NO[C@@](c3cc(Br)cc(C(F)(F)F)c3)(C(F)(F)F)C2)ccc1C(=O)NC1CC(Cl)=NO1 (stereo partly drawn) [Compound A021, 4-[(5S)-5-[3-bromo-5-(trifluoromethyl)phenyl]-5-(trifluoromethyl)-4H-isoxazol-3-yl]-N-(3-chloro-4,5-dihydroisoxazol-5-yl)-2-methyl-benzamide]
≥ 80%: percent effect (mortality or growth inhibition) at 200 ppm (Diabrotica Balteata; [1]) | mortality at 200 ppm (Thrips tabaci; [2]) | mortality at 200 ppm (Myzus persicae; [3]) | percent effect (mortality or growth inhibition) at 200 ppm (Plutella xylostella; [4]) | mortality at 200 ppm (Tetranychus urticae; [5]) | percent control (mortality, anti-feedant effect or growth inhibition) at 200 ppm (Spodoptera littoralis; [6])

COC1=NOC(NC(=O)c2ccc(C3=NO[C@@](c4cc(Br)cc(C(F)(F)F)c4)(C(F)(F)F)C3)cc2C)C1 (stereo partly drawn) [Compound A044]
≥ 80%: percent effect (mortality or growth inhibition) at 200 ppm (Diabrotica Balteata; [1]) | mortality at 200 ppm (Thrips tabaci; [2]) | mortality at 200 ppm (Myzus persicae; [3]) | percent effect (mortality or growth inhibition) at 200 ppm (Plutella xylostella; [4]) | mortality at 200 ppm (Tetranychus urticae; [5]) | percent control (mortality, anti-feedant effect or growth inhibition) at 200 ppm (Spodoptera littoralis; [6])

COC1=NO[C@H](NC(=O)c2ccc(C3=NO[C@@](c4cc(Cl)c(Cl)c(Cl)c4)(C(F)(F)F)C3)cc2C)C1 (single isomer, unassigned) [Compound A148]
≥ 80%: percent effect (mortality or growth inhibition) at 200 ppm (Diabrotica Balteata) | mortality at 200 ppm (Thrips tabaci) | mortality at 200 ppm (Myzus persicae) | percent effect (mortality or growth inhibition) at 200 ppm (Plutella xylostella) | mortality at 200 ppm (Tetranychus urticae) | percent control (mortality, anti-feedant effect or growth inhibition) at 200 ppm (Spodoptera littoralis)

COC1=NOC(N(C=O)C(=O)c2ccc(C3=NO[C@@](c4cc(Cl)cc(Cl)c4)(C(F)(F)F)C3)cc2C)C1 (stereo partly drawn) [Compound A134]
≥ 80%: percent effect (mortality or growth inhibition) at 200 ppm (Diabrotica Balteata) | mortality at 200 ppm (Thrips tabaci) | mortality at 200 ppm (Myzus persicae) | percent effect (mortality or growth inhibition) at 200 ppm (Plutella xylostella) | mortality at 200 ppm (Tetranychus urticae) | percent control (mortality, anti-feedant effect or growth inhibition) at 200 ppm (Spodoptera littoralis)

COC1=NOC(NC(=O)c2ccc(C3=NO[C@@](c4cc(Cl)c(Cl)c(Cl)c4)(C(F)(F)F)C3)cc2Cl)C1 (stereo partly drawn) [Compound A043]
≥ 80%: percent effect (mortality or growth inhibition) at 200 ppm (Diabrotica Balteata) | mortality at 200 ppm (Thrips tabaci) | mortality at 200 ppm (Myzus persicae) | percent effect (mortality or growth inhibition) at 200 ppm (Plutella xylostella) | mortality at 200 ppm (Tetranychus urticae) | percent control (mortality, anti-feedant effect or growth inhibition) at 200 ppm (Spodoptera littoralis)

Cc1cc(C2=NO[C@@](c3cccc(C(F)(F)F)c3)(C(F)(F)F)C2)ccc1C(=O)NC1CC(Br)=NO1 (stereo partly drawn) [Compound A058]
≥ 80%: percent effect (mortality or growth inhibition) at 200 ppm (Diabrotica Balteata; [1]) | mortality at 200 ppm (Thrips tabaci; [2]) | mortality at 200 ppm (Myzus persicae; [3]) | percent effect (mortality or growth inhibition) at 200 ppm (Plutella xylostella; [4]) | mortality at 200 ppm (Tetranychus urticae; [5]) | percent control (mortality, anti-feedant effect or growth inhibition) at 200 ppm (Spodoptera littoralis; [6])

CO/N=C(\C)COC1=NOC(NC(=O)c2ccc(C3=NO[C@@](c4cc(Cl)c(Cl)c(Cl)c4)(C(F)(F)F)C3)cc2C)C1 (stereo partly drawn) [Compound A116, N-[3-[(2E)-2-methoxyiminopropoxy]-4,5-dihydroisoxazol-5-yl]-2-methyl-4-[(5S)-5-(3,4,5-trichlorophenyl)-5-(trifluoromethyl)-4H-isoxazol-3-yl]benzamide]
≥ 80%: percent effect (mortality or growth inhibition) at 200 ppm (Diabrotica Balteata) | mortality at 200 ppm (Thrips tabaci) | mortality at 200 ppm (Myzus persicae) | percent effect (mortality or growth inhibition) at 200 ppm (Plutella xylostella) | mortality at 200 ppm (Tetranychus urticae) | percent control (mortality, anti-feedant effect or growth inhibition) at 200 ppm (Spodoptera littoralis)

Cc1cc(C2=NO[C@@](c3cc(Cl)cc(Cl)c3)(C(F)(F)F)C2)ccc1C(=O)N[C@@H]1CC(C(F)(F)F)=NO1 (single isomer, unassigned) [Compound A154]
≥ 80%: percent effect (mortality or growth inhibition) at 200 ppm (Diabrotica Balteata) | mortality at 200 ppm (Thrips tabaci) | mortality at 200 ppm (Myzus persicae) | percent effect (mortality or growth inhibition) at 200 ppm (Plutella xylostella) | mortality at 200 ppm (Tetranychus urticae) | percent control (mortality, anti-feedant effect or growth inhibition) at 200 ppm (Spodoptera littoralis)

C=C(Cl)COC1=NOC(NC(=O)c2ccc(C3=NO[C@@](c4cc(Cl)c(F)c(Cl)c4)(C(F)(F)F)C3)cc2C)C1 (stereo partly drawn) [Compound A100, N-[3-(2-chloroallyloxy)-4,5-dihydroisoxazol-5-yl]-4-[(5S)-5-(3,5-dichloro-4-fluoro-phenyl)-5-(trifluoromethyl)-4H-isoxazol-3-yl]-2-methyl-benzamide]
≥ 80%: percent effect (mortality or growth inhibition) at 200 ppm (Diabrotica Balteata) | mortality at 200 ppm (Thrips tabaci) | mortality at 200 ppm (Myzus persicae) | percent effect (mortality or growth inhibition) at 200 ppm (Plutella xylostella) | mortality at 200 ppm (Tetranychus urticae) | percent control (mortality, anti-feedant effect or growth inhibition) at 200 ppm (Spodoptera littoralis)

CSC1=NOC(NC(=O)c2ccc(C3=NO[C@@](c4cc(Cl)cc(C(F)(F)F)c4)(C(F)(F)F)C3)cc2C)C1 (stereo partly drawn) [Compound A050]
≥ 80%: percent effect (mortality or growth inhibition) at 200 ppm (Diabrotica Balteata) | mortality at 200 ppm (Thrips tabaci) | mortality at 200 ppm (Myzus persicae) | percent effect (mortality or growth inhibition) at 200 ppm (Plutella xylostella) | mortality at 200 ppm (Tetranychus urticae) | percent control (mortality, anti-feedant effect or growth inhibition) at 200 ppm (Spodoptera littoralis)

Cc1cc(C2=NO[C@@](c3cc(Cl)cc(Cl)c3)(C(F)(F)F)C2)ccc1C(=O)N(C=O)C1CC(Br)=NO1 (stereo partly drawn) [Compound A056, N-(3-bromo-4,5-dihydroisoxazol-5-yl)-4-[(5S)-5-(3,5-dichlorophenyl)-5-(trifluoromethyl)-4H-isoxazol-3-yl]-N-formyl-2-methyl-benzamide]
≥ 80%: percent effect (mortality or growth inhibition) at 200 ppm (Diabrotica Balteata) | mortality at 200 ppm (Thrips tabaci) | mortality at 200 ppm (Myzus persicae) | percent effect (mortality or growth inhibition) at 200 ppm (Plutella xylostella) | mortality at 200 ppm (Tetranychus urticae) | percent control (mortality, anti-feedant effect or growth inhibition) at 200 ppm (Spodoptera littoralis)

Cc1cc(C2=NO[C@@](c3cc(Cl)c(F)c(Cl)c3)(C(F)(F)F)C2)ccc1C(=O)NC1CC(OCC(F)F)=NO1 (stereo partly drawn) [Compound A071]
≥ 80%: percent effect (mortality or growth inhibition) at 200 ppm (Diabrotica Balteata) | mortality at 200 ppm (Thrips tabaci) | mortality at 200 ppm (Myzus persicae) | percent effect (mortality or growth inhibition) at 200 ppm (Plutella xylostella) | mortality at 200 ppm (Tetranychus urticae) | percent control (mortality, anti-feedant effect or growth inhibition) at 200 ppm (Spodoptera littoralis)

From US10499642B2, “Isoxazoline-substituted benzamides and analogues as insecticides” (SYNGENTA PARTICIPATIONS AG, priority 2015, dated 2019)
